In patent publication US20250235462A1, “NOVEL CAPSID ASSEMBLY INHIBITORS” (AM SCIENCES INC, priority 2021, published 2025):
Several values for one entry are separate records, joined by “and”; a condition that tells them apart may be missing. Identical values can stand only once. Like-named read-outs stand apart in the source and are kept apart here.

Columns and labels:
[1] = test system: intracellular HBV DNA; assay: Real-time PCR for intracellular HBV DNA in HepAD38 cells; format: cell-based, hepatitis B virus (HBV); settings: treated for 65 hours, intracellular HBV DNA by real-time PCR
Method: HepAD38 cells were cultured in DMEM medium (Welgene) supplemented with 200 unit/mL penicillin, 200 μg/mL streptomycin, and 10% FBS. During maintenance and passage, the cells were cultured together with 0.4 μg/mL tetracycline. Two days before the treatment with compounds for inducing HBV replication was started, the medium was replaced with a tetracycline-free complete growth medium. […]
HepAD38 cells were treated with a compound for 65 hours and then recovered, and intracellular HBV DNA was extracted therefrom according to the protocol in the DNeasy Blood & Tissue Kit (Qiagen). The primers and probes used to quantify HBV DNA were 5′-[…]-3′, 5′-[…]-3′, and 5′-/56-FAM/TGT CCT GGT/ZEN/[…]/3IABKFQ/-3′. The HBV DNA was amplified by real-time PCR assay using LightCycler 480 (Roche) (J. Virol., 2018, 92(16):e00339-18). All of the processes were confirmed in duplicate.

[2] = molecular target: Protein (capsid assembly) (Hepatitis B virus genotype D subtype ayw, UniProt P03146); assay: Protein inhibition (capsid assembly inhibition), Table 1; format: biochemical; settings: for EC50: NVR value of the same run in brackets, read-out: Protein EC50
Chain of Protein (capsid assembly) (P03146 whole entry): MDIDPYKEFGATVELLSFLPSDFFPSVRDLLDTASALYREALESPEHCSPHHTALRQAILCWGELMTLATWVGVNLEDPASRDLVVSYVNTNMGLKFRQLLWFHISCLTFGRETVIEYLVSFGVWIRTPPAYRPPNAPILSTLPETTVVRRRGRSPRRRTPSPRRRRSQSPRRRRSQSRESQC

[3] = Hepatitis B virus, HePAD38, 65 h
[4] = @30 μM, read-out: Protein % inhibition rate (@30 μM)

| Compound | IC50 [1, 3] [µM] | inhibition at 30 µM [2, 4] [%] | EC50 [2] | inhibition at 30 µM ([2]; read-out: Protein % inhibition rate (@30 μM), @30 μM) [%] | IC50 ([1]; read-out: IC50) [µM] |
| --- | --- | --- | --- | --- | --- |
| O=C(Nc1ccc(F)c(Cl)c1)N(Cc1nnc2n1CCCCC2)c1ccc2cc[nH]c2c1 [Example 10, 3-(3-Chloro-4-fluorophenyl)-1-(1H-indol-6-yl)-1-((6,7,8,9-tetrahydro-5H-[1,2,4]triazolo[4,3-a]azepin-3-yl)methyl)urea] | > 3.3 | 85 | – | – | – |
| COc1ccc(N(Cc2nnc3n2CCN(C(=O)OCc2ccccc2)CC3)C(=O)Nc2ccc(F)c(Cl)c2)cc1 [Example 38, Benzyl 3-((3-(3-chloro-4-fluorophenyl)-1-(4-methoxyphenyl)ureido)methyl)-8,9-dihydro-5H-[1,2,4]triazolo[4,3-d][1,4]diazepine-7(6H)-carboxylate] | > 3.3 | -1 | – | – | – |
| CC(C)(C)OC(=O)n1ccc2cc(N(Cc3nnc4n3CCCCC4)C(=O)Nc3ccc(F)c(Cl)c3)ccc21 [Example 17, tert-Butyl 5-(3-(3-chloro-4-fluorophenyl)-1-((6,7,8,9-tetrahydro-5H-[1,2,4]triazolo[4,3-a]azepin-3-yl)methyl)ureido)-1H-indole-1-carboxylate] | > 3.3 | 92.6 | 13 µM | – | – |
| O=C(Nc1ccc(F)c(Cl)c1)N(Cc1nnc2n1CCCCCC2)c1ccc2c(c1)OCO2 [Example 30, 1-(Benzo[d][1,3]dioxol-5-yl)-3-(3-chloro-4-fluorophenyl)-1-((5,6,7,8,9,10-hexahydro-[1,2,4]triazolo[4,3-a]azocin-3-yl)methyl)urea] | 0.74 | 32 | 3.6 µM | – | – |
| O=C(Nc1ccc(F)c(Cl)c1)N(Cc1nnc2n1CCCCC2)c1ncco1 [Example 39, 3-(3-Chloro-4-fluorophenyl)-1-(oxazol-2-yl)-1-((6,7,8,9-tetrahydro-5H-[1,2,4]triazolo[4,3-a]azepin-3-yl)methyl)urea] | > 3.3 | 100 | 5.7 µM | – | – |
| O=C(Nc1ccc(F)c(Cl)c1)N(Cc1nnc2n1CCCCC2)c1cccc(C(F)(F)F)c1 [Example 21, 3-(3-Chloro-4-fluorophenyl)-1-((6,7,8,9-tetrahydro-5H-[1,2,4]triazolo[4,3-a]azepin-3-yl)methyl)-1-(3-(trifluoromethyl)phenyl)urea] | > 3.3 | – | 11 µM | 4 | – |
| O=C(NC1CCCC1)N(Cc1nnc2n1CCCCC2)c1ccc2c(c1)OCO2 [Example 11, 1-(Benzo[d][1,3]dioxol-5-yl)-3-cyclopentyl-1-((6,7,8,9-tetrahydro-5H-[1,2,4]triazolo[4,3-a]azepin-3-yl)methyl)urea] | > 3.3 | 4 | – | – | – |
| O=C(Nc1cc(F)c(F)c(F)c1)c1ccc(F)c(S(=O)(=O)N2CCC(O)CC2)c1 [NVR, reference compound] | – | – | 4.1 µM and 5.2 µM and 4.9 µM and 3.9 µM and 4.8 µM | – | 0.4 |
| Cc1cccc(NC(=O)N(Cc2nnc3n2CCCCC3)c2ccc3c(c2)OCO3)n1 [Example 20, 1-(Benzo[d][1,3]dioxol-5-yl)-3-(6-methylpyridin-2-yl)-1-((6,7,8,9-tetrahydro-5H-[1,2,4]triazolo[4,3-a]azepin-3-yl)methyl)urea] | 0.89 | 3 | – | – | – |
| N#Cc1ccc(N(Cc2nnc3n2CCCCC3)C(=O)Nc2ccc(F)c(Cl)c2)cc1 [Example 28, 3-(3-Chloro-4-fluorophenyl)-1-(4-cyanophenyl)-1-((6,7,8,9-tetrahydro-5H-[1,2,4]triazolo[4,3-a]azepin-3-yl)methyl)urea] | 0.604 | 36 | 4 µM | – | – |
| Cn1ccc(N(Cc2nnc3n2CCCCC3)C(=O)Nc2ccc(F)c(Cl)c2)n1 [Example 35, 3-(3-Chloro-4-fluorophenyl)-1-(1-methyl-1H-pyrazol-3-yl)-1-((6,7,8,9-tetrahydro-5H-[1,2,4]triazolo[4,3-a]azepin-3-yl)methyl)urea] | > 3.3 | 63.1 | – | – | – |
| COc1ccc(N(Cc2nnc(C)n2C)C(=O)Nc2ccc(F)c(Cl)c2)cc1 [Example 15, 3-(3-Chloro-4-fluorophenyl)-1-((4,5-dimethyl-4H-1,2,4-triazol-3-yl)methyl)-1-(4-methoxyphenyl)urea] | > 3.3 | 55.3 | 29 µM | – | – |
| COc1ccc(N(Cc2nnc(C)n2C2CC2)C(=O)Nc2ccc(F)c(Cl)c2)cc1 [Example 37, 3-(3-Chloro-4-fluorophenyl)-1-((4-cyclopropyl-5-methyl-4H-1,2,4-triazol-3-yl)methyl)-1-(4-methoxyphenyl)urea] | > 3.3 | 84.1 | – | – | – |
| COc1ccc(N(Cc2nnc(C)n2C2CCCC2)C(=O)Nc2ccc(F)c(Cl)c2)cc1 [Example 32, 3-(3-Chloro-4-fluorophenyl)-1-((4-cyclopentyl-5-methyl-4H-1,2,4-triazol-3-yl)methyl)-1-(4-methoxyphenyl)urea] | 0.32 | 23 | 4.9 µM | – | – |
| COC(=O)Cc1nnc(CN(C(=O)Nc2ccc(F)c(Cl)c2)c2ccc3c(c2)OCO3)[nH]1 [Example 45, Methyl 2-(5-((1-(benzo[d][1,3]dioxol-5-yl)-3-(3-chloro-4-fluorophenyl)ureido)methyl)-4H-1,2,4-triazol-3-yl)acetate] | > 3.3 | 6 | – | – | – |
| O=C(Nc1ccc(F)c(Cl)c1)N(Cc1nnc2n1CCCCC2)C1CCCC1 [Example 6, 3-(3-Chloro-4-fluorophenyl)-1-cyclopentyl-1-((6,7,8,9-tetrahydro-5H-[1,2,4]triazolo[4,3-a]azepin-3-yl)methyl)urea] | 1.57 | 77 | 1.2 µM | – | – |
| COc1ccc(N(Cc2nnc(C(C)C)n2C)C(=O)Nc2ccc(F)c(Cl)c2)cc1 [Example 29, 3-(3-Chloro-4-fluorophenyl)-1-((5-isopropyl-4-methyl-4H-1,2,4-triazol-3-yl)methyl)-1-(4-methoxyphenyl)urea] | > 3.3 | 1 | – | – | – |
| N#Cc1cccc(N(Cc2nnc3n2CCCCC3)C(=O)Nc2ccc(F)c(Cl)c2)c1 [Example 19, 3-(3-Chloro-4-fluorophenyl)-1-(3-cyanophenyl)-1-((6,7,8,9-tetrahydro-5H-[1,2,4]triazolo[4,3-a]azepin-3-yl)methyl)urea] | > 3.3 | 94 | – | – | – |
| CN(C)c1ccc(N(Cc2nnc3n2CCCCC3)C(=O)Nc2ccc(F)c(Cl)c2)cc1 [Example 34, 3-(3-Chloro-4-fluorophenyl)-1-(4-(dimethylamino)phenyl)-1-((6,7,8,9-tetrahydro-5H-[1,2,4]triazolo[4,3-a]azepin-3-yl)methyl)urea] | > 3.3 | -7 | – | – | – |
| COc1ccc(N(Cc2nnc3n2CCCCC3)C(=O)N(C)c2ccc(F)c(Cl)c2)cc1 [Example 9, 1-(3-Chloro-4-fluorophenyl)-3-(4-methoxyphenyl)-1-methyl-3-((6,7,8,9-tetrahydro-5H-[1,2,4]triazolo[4,3-a]azepin-3-yl)methyl)urea] | 0.75 | 5 | – | – | – |
| COc1ccc(N(Cc2nnc(C)n2-c2ccccc2)C(=O)Nc2ccc(F)c(Cl)c2)cc1 [Example 25, 3-(3-Chloro-4-fluorophenyl)-1-(4-methoxyphenyl)-1-((5-methyl-4-phenyl-4H-1,2,4-triazol-3-yl)methyl)urea] | > 3.3 | -2 | – | – | – |
| COc1ccc(N(Cc2nnc(C3CCCC3)n2C)C(=O)Nc2ccc(F)c(Cl)c2)cc1 [Example 31, 3-(3-Chloro-4-fluorophenyl)-1-((5-cyclopentyl-4-methyl-4H-1,2,4-triazol-3-yl)methyl)-1-(4-methoxyphenyl)urea] | 3.48 | -4 | 16 µM | – | – |
| O=C(Nc1ccccc1Cl)N(Cc1nnc2n1CCCCC2)c1ccc2c(c1)OCO2 [Example 5, 1-(Benzo[d][1,3]dioxol-5-yl)-3-(2-chlorophenyl)-1-((6,7,8,9-tetrahydro-5H-[1,2,4]triazolo[4,3-a]azepin-3-yl)methyl)urea] | > 3.3 | 9 | – | – | – |
| O=C(Nc1ccc(F)c(Cl)c1)N(Cc1nnc2n1CCCCC2)c1ccc2[nH]ccc2c1 [Example 18, 3-(3-Chloro-4-fluorophenyl)-1-(1H-indol-5-yl)-1-((6,7,8,9-tetrahydro-5H-[1,2,4]triazolo[4,3-a]azepin-3-yl)methyl)urea] | > 3.3 | 96.8 | 4.8 µM | – | – |
| CNc1ccc(N(Cc2nnc3n2CCCCC3)C(=O)Nc2ccc(F)c(Cl)c2)cc1 [Example 14, 3-(3-Chloro-4-fluorophenyl)-1-(4-(methylamino)phenyl)-1-((6,7,8,9-tetrahydro-5H-[1,2,4]triazolo[4,3-a]azepin-3-yl)methyl)urea] | > 0.55 | 92 | 2.8 µM | – | – |
